Assay results taken from patent publication US10363248B2, “Salts of heterocyclic modulators of HIF activity for treatment of disease” (priority 2014, dated 2019).
Values joined by “and” are separate entries in the source; they are usually repeats but may differ in a detail not shown here. Equal entries are not always repeated. “Also recorded” adds a separate entry of the source. Structures can show the parent of a compound that is named as a salt. Where two headings read alike, the source gives them in different places.

Tests used:
[1] = Plasma concentration-time data and PK parameters after a PO dose of 10 mg/kg in female CD1 nude mice (Groups 1-5)
Method: (§1) Pharmacokinetic studies were performed in female CD-1 nude mice. —Either 10 or 50 mg/kg of each test article was administered PO, QD in 0.5% methylcellulose aqueous solution or suspension. […] Plasma concentrations were analyzed using a LC/MS method and the pharmacokinetic parameters computed using a noncompartmental method.

[2] = Plasma concentration in female CD-1 nude mice, formulation groups A-C; format: in vivo; settings: for concentration at 24 h: group mean; for concentration at 6 h: time point 6 h; for concentration at 6 h / concentration at 8 h: individual mouse; for concentration at 8 h: time point 8 h
Method: as §1

[3] = test system: NB-1 cells; assay: Neuroblastoma cellular assay; format: cell-based; settings: various concentrations
Excerpt: (§2) NB-1, Gli56, and D423 cell lines are deleted for ENO-1 (GLI56 and D423) or PGD, which renders them with reduced glycolytic capacity (Muller, F. et al., Nature, 2012, 488, 337-42).

[4] = test system: OCI-AML3 cell line; assay: Acute myeloid leukemia cell viability; format: cell-based; settings: various concentrations, 2 days; normalized to DMSO; FIG. 6
Method: (§3) The OCI-AML3 cell line was treated with various concentrations of compound for 2 days and the percent of viable cells normalized to control cells treated with DMSO (FIG. 6). OCI-AML3 cells constitutively expressing luciferase were tail vein injected in NSG nude mice. 17 days after cell injection, luciferin was injected into animals and luciferase signal was measured using an IVIS imaging system to determine tumor burden and for randomization of subjects into study groups. On day 18, animals began receiving daily oral doses of vehicle or 10 mpk of the compound of Example 80 which continued throughout the study. On day 28, imaging was performed again to determine tumor burden (FIG. 7).

[5] = test system: OCI-AML3 cells; assay: OCI-AML3 human leukemia model in NSG mice; format: in vivo, NSG nude mice; settings: daily oral 10 mg/kg
Method: as §3

[6] = test system: 293T-HRE-GFP-luc cells; assay: Cell-based reporter assay for IC50 determinations; settings: hypoxia for 6 hrs. (1% O2); luminescence; read-out: IC50 Classification
Method: IC50 values were calculated using a four-parameter logistic curve fit.

[7] = test system: TMD8 cells; assay: Diffuse large B-cell lymphoma (DLBCL) assay, viable cells; format: cell-based; settings: varying concentrations, 7 days; Guava ViaCount; FIG. 1
Method: Equal number of TMD8 cells were plated and treated with varying concentrations of the compound of Example 80 for 7 days. Percent of viable cells was determined using Guava ViaCount reagents (EMD Millipore cat #4000-0040) that contains proprietary dyes that enable the determination of the number of live and dead cells in a sample (FIG. 1).

[8] = Dynamic vapor sorption (DVS); format: physicochemical; settings: for DVS Sorption (%): weight gain from 0 to 80% RH, 25° C; for form transformation after DVS test: XRPD after DVS; for hygroscopicity classification: according to DVS result
Method: Transfer about 10 mg of sample into a DVS (DVS Advantage-1, SMS) and record the weight change with respect to the atmospheric humidity at 25° C. Use the following parameters: Equilibrium: dm/dt: 0.01%/min. (for min: 10 min and max: 180 min). Drying: 0% RH for 120 min RH (%) measurement step: 10%; RH (%) measurement step scope: 0-90-0%

[9] = test system: Gli56 cells; assay: Glioblastoma cellular assay Gli56; format: cell-based; settings: various concentrations
Excerpt: as §2

[10] = test system: D423 cells; assay: Glioblastoma cellular assay D423; format: cell-based; settings: various concentrations; FIG. 4
Excerpt: as §2

[11] = test system: NB-1 xenografts; assay: NB-1 xenograft model; format: in vivo, CD-1 nude mice; settings: daily oral treatment with 10 mg/kg; FIG. 5
[12] = time point 2 h, individual mice, PO, QD, 10 or 50 mg/kg, 2,2,2-trifluoroacetate
[13] = time point 24 h, individual mice, PO, QD, 10 or 50 mg/kg, 2,2,2-trifluoroacetate
[14] = female, CD-1 nude, mouse, in vivo, po, 10 mg/kg
[15] = time point 2 h, individual mice, PO, QD, 10 or 50 mg/kg, listed as A
[16] = time point 24 h, individual mice, PO, QD, 10 or 50 mg/kg, listed as A
[17] = female, CD-1 nude, mouse, oral, read-out: Calc. Conc.
[18] = female, CD-1 nude, mouse, oral, read-out: Calc. Conc. (ng/mL)
[19] = time point 2 h, individual mice, PO, QD, 10 or 50 mg/kg, listed as C, methanesulfonate
[20] = time point <24, individual mouse

Q: For Cc1nc(-c2nc(-c3ccc(OC(F)(F)F)cc3)no2)nn1Cc1cccc(N2CCC(S(C)(=O)=O)CC2)c1.O=C(O)C(F)(F)F [5-(5-methyl-1-(3-(4-(methylsulfonyl)piperidin-1-yl)benzyl)-1H-1,2,4-triazol-3-yl)-3-(4-(trifluoromethoxy)phenyl)-1,2,4-oxadiazole 2,2,2-trifluoroacetate], which “plasma concentrations compared with the free base” value ([1]; CD-1 mice, PO) is on record?
A: significantly higher

Q: Which “plasma concentrations compared with the free base” value ([1]; mouse, in vivo, po) does the source give for Cc1nc(-c2nc(-c3ccc(OC(F)(F)F)cc3)no2)nn1Cc1cccc(N2CCC(S(C)(=O)=O)CC2)c1.Cl [5-(5-methyl-1-(3-(4-(methylsulfonyl)piperidin-1-yl)benzyl)-1H-1,2,4-triazol-3-yl)-3-(4-(trifluoromethoxy)phenyl)-1,2,4-oxadiazole hydrochloride] here?
A: significantly higher

Q: For Cc1nc(-c2nc(-c3ccc(OC(F)(F)F)cc3)no2)nn1Cc1cccc(N2CCC(S(C)(=O)=O)CC2)c1 [B, 5-(5-methyl-1-(3-(4-(methylsulfonyl)piperidin-1-yl)benzyl)-1H-1,2,4-triazol-3-yl)-3-(4-(trifluoromethoxy)phenyl)-1,2,4-oxadiazole 2,2,2-trifluoroacetate], which concentration at 24 h ([2]; time point 2 h, PO, QD, 10 or 50 mg/kg, 2,2,2-trifluoroacetate) is on record?
A: 834.8 nM

Q: And the “Calc. Conc. (nM)” value [2, 12]?
A: 1131.9 nM and 748.0 nM and 793.6 nM and 632.1 nM and 868.2 nM

Q: What about the “Calc. Conc. (ng/mL)” value [2, 12] of the same compound?
A: 636.4 ng/mL and 420.5 ng/mL and 446.2 ng/mL and 355.4 ng/mL and 488.1 ng/mL

Q: And the concentration at 24 h ([2]; time point 24 h, PO, QD, 10 or 50 mg/kg, 2,2,2-trifluoroacetate)?
A: 776.4 nM

Q: What about the “Calc. Conc. (nM)” value [2, 13] of the same compound?
A: 1426.5 nM and 220.7 nM and 1116.1 nM and 490.3 nM and 628.2 nM

Q: And the “Calc. Conc. (ng/mL)” value [2, 13]?
A: 802.0 ng/mL and 124.1 ng/mL and 627.5 ng/mL and 275.6 ng/mL and 353.2 ng/mL

Q: What does the source list for Cc1nc(-c2nc(-c3ccc(OC(F)(F)F)cc3)no2)nn1Cc1cccc(N2CCC(S(C)(=O)=O)CC2)c1.O=S(=O)(O)c1ccccc1 [BESYLATE SALT, 1-(3-((5-methyl-3-(3-(4-(trifluoromethoxy)phenyl)-1,2,4-oxadiazol-5-yl)-1H-1,2,4-triazol-1-yl)methyl)phenyl)-4-(methylsulfonyl)piperidin-1-ium benzenesulfonate]?
A: oral bioavailability in comparison to the free base ([1]; mouse, in vivo, po): improved oral bioavailability; plasma concentrations compared with the free base ([1]; mouse, in vivo, po): significantly higher

Q: With Cc1nc(-c2nc(-c3ccc(OC(F)(F)F)cc3)no2)nn1Cc1cccc(N2CCC(S(C)(=O)=O)CC2)c1 [Example 80, 4-Methanesulfonyl-1-{3-[(5-methyl-3-{3-[4-(trifluoromethoxy)phenyl]-1,2,4-oxadiazol-5-yl}-1H-1,2,4-triazol-1-yl)methyl]phenyl}piperidine] as the compound, how does the “cell death in NB-1 cells” value [3] read?
A: cell death readily apparent

Q: What about the “number of viable NB-1 cells” value ([3]; FIG. 2) of the same compound?
A: reduced number of viable cells; also recorded: cell numbers are significantly reduced

Q: And the “number of viable OCI-AML3 cells” value [4]?
A: reduced number of viable cells

Q: And the “disease burden measured by IVIS imaging” value ([5]; FIG. 7)?
A: reduces disease burden

Q: And the survival ([5]; relative to vehicle, FIG. 8, 10 mg/kg)?
A: extends survival; also recorded: significantly increased their survival

Q: And the AUCINF [1, 14]?
A: 16.2 µM·h

Q: And the AUClast [1, 14]?
A: 12.1 µM·h

Q: What about the Cmax [1, 14] of the same compound?
A: 959 nM

Q: What about the “Terminal t1/2” value [1, 14] of the same compound?
A: 12.4 h

Q: And the “Concentration Mean” value ([1]; female, CD-1 nude, mouse, in vivo, po, 10 mg/kg, 0.083 hr)?
A: 28.9 nM

Q: What about the “Concentration Mean” value ([1]; female, CD-1 nude, mouse, in vivo, po, 10 mg/kg, 0.25 hr) of the same compound?
A: 280 nM

Q: And the “Concentration Mean” value ([1]; female, CD-1 nude, mouse, in vivo, po, 10 mg/kg, 0.5 hr)?
A: 440 nM

Q: What about the IC50 [6] of the same compound?
A: < 100 nM

Q: And the “number/percent of viable TMD8 cells” value [7]?
A: reduced number of viable cells; also recorded: respond robustly

Q: And the “DVS Sorption (%)” value [8]?
A: 0.16%

Q: What about the “cell death in Gli56 cells” value [9] of the same compound?
A: cell death readily apparent

Q: What about the “number of viable Gli56 cells” value ([9]; FIG. 3) of the same compound?
A: reduced number of viable cells; also recorded: cell numbers are significantly reduced

Q: And the concentration at 24 h ([2]; female, CD-1 nude, mouse, oral, time point 24 h, PO, QD, 10 or 50 mg/kg)?
A: 414 nM

Q: And the concentration at 24 h ([2]; time point 2 h, PO, QD, 10 or 50 mg/kg, listed as A)?
A: 561.2 nM

Q: What about the “Calc. Conc. (nM)” value [2, 15] of the same compound?
A: 591.7 nM and 510.0 nM and 285.4 nM and 657.3 nM and 761.7 nM

Q: What about the “Calc. Conc. (ng/mL)” value [2, 15] of the same compound?
A: 332.7 ng/mL and 286.7 ng/mL and 160.4 ng/mL and 369.5 ng/mL and 428.2 ng/mL

Q: And the “Calc. Conc. (nM)” value [2, 16]?
A: 987.2 nM and 307.2 nM and 342.7 nM and 233.3 nM and 201.3 nM

Q: What about the “Calc. Conc. (ng/mL)” value [2, 16] of the same compound?
A: 555.0 ng/mL and 172.7 ng/mL and 192.7 ng/mL and 131.2 ng/mL and 113.1 ng/mL

Q: And the “number of viable D423 cells” value [10]?
A: reduced number of viable cells; also recorded: cell numbers are significantly reduced

Q: And the “growth of NB-1 xenografts (tumor growth)” value [11]?
A: reduces the tumor growth

Q: Which results are given for Cc1nc(-c2nc(-c3ccc(OC(F)(F)F)cc3)no2)nn1Cc1cccc(N2CCC(S(C)(=O)=O)CC2)c1 [HYDROCHLORIDE SALT, 5-(5-methyl-1-(3-(4-(methylsulfonyl)piperidin-1-yl)benzyl)-1H-1,2,4-triazol-3-yl)-3-(4-(trifluoromethoxy)phenyl)-1,2,4-oxadiazole hydrochloride]?
A: oral bioavailability in comparison to the free base ([1]; mouse, in vivo, po): improved oral bioavailability; form transformation after DVS test [8]: No form transformation was observed; hygroscopicity classification [8]: slightly hygroscopic; DVS Sorption (%) ([8]; listed as HCl, hydrochloride): 1.59%; DVS Sorption (%) ([8]; listed as hydrochloride candidate, hydrochloride): 1.59%

Q: With CS(=O)(=O)O.Cc1nc(-c2nc(-c3ccc(OC(F)(F)F)cc3)no2)nn1Cc1cccc(N2CCC(S(C)(=O)=O)CC2)c1 [MESYLATE SALT, 1-(3-((5-methyl-3-(3-(4-(trifluoromethoxy)phenyl)-1,2,4-oxadiazol-5-yl)-1H-1,2,4-triazol-1-yl)methyl)phenyl)-4-(methylsulfonyl)piperidin-1-ium methanesulfonate] as the compound, how does the “oral bioavailability in comparison to the free base” value ([1]; mouse, in vivo, po) read?
A: improved oral bioavailability

Q: And the “plasma concentrations compared with the free base” value ([1]; mouse, in vivo, po)?
A: significantly higher

Q: What about the “form transformation after DVS test” value [8] of the same compound?
A: No form transformation was observed

Q: And the hygroscopicity classification [8]?
A: hygroscopic

Q: And the “DVS Sorption (%)” value [8]?
A: 2.47%

Q: What about the concentration at 6 h [2, 17] of the same compound?
A: 2950 nM

Q: And the concentration at 6 h [2, 18]?
A: 1660 ng/mL

Q: And the concentration at 8 h [2, 17]?
A: 2910 nM

Q: What about the concentration at 8 h [2, 18] of the same compound?
A: 1640 ng/mL

Q: And the concentration at 24 h ([2]; time point 2 h, PO, QD, 10 or 50 mg/kg)?
A: 2249.9 nM

Q: What about the “Calc. Conc. (nM)” value [2, 19] of the same compound?
A: 2676.0 nM and 1457.7 nM and 2725.3 nM and 2248.5 nM and 2141.9 nM

Q: And the “Calc. Conc. (ng/mL)” value [2, 19]?
A: 1504.5 ng/mL and 819.5 ng/mL and 1532.2 ng/mL and 1264.1 ng/mL and 1204.2 ng/mL

Q: And the “Calc. Conc. (nM)” value [2, 20]?
A: 1469.8 nM

Q: And the “Calc. Conc. (ng/mL)” value [2, 20]?
A: 826.3 ng/mL
